One assay deals with PC-3 cells. Description: Antiproliferative activity, Alamar Blue assay, PC-3 cells. It is filed as cell-based, human. The conditions noted are these: Homo sapiens, PC-3, PC3 cells, read-out: PC3 antiproliferative activity pIC50 (converted). A digest of the protocol: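 PC-3 cells seeded at 4.5×10^3 cells/ml, left to adhere 24 hr, then exposed to compound for 4 days. Resazurin (Alamar Blue) added for a further 24 hrs at 37° C; fluorescence read at 540/590 nm. Viability as % of untreated control, mean of 3 wells; IC50 by probit analysis, reported as pIC50.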

The test system of the next assay is HCT116 cells. The experiment in a line: Antiproliferative activity, Alamar Blue assay, HCT116 cells. It is filed as cell-based, human. The conditions noted are these: Homo sapiens, HCT-116, HCT116 cells, read-out: HCT116 antiproliferative activity pIC50 (converted). A digest of the protocol: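 HCT116 cells seeded, adhered 24 h, then exposed to compound for 4 days; Alamar Blue (resazurin) added for 4 h at 37 °C, fluorescence read at 540/590 nm. Viability as % of untreated control, triplicate wells; IC50 by probit analysis, reported as pIC50.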

Read-outs that look alike come from different tables or passages of the source.

For the compound `C#Cc1cccc(CC(C)(C#N)c2ccc3cc(CC)c(=O)[nH]c3c2)n1` (stereo not shown) [Compound 211], the values for the IC50 in the assay with PC-3 cells (Alamar Blue) and in the assay with HCT116 cells (Alamar Blue) were 501 nM and 316 nM, respectively.

As to `CCc1cc2ccc(C(C)(C#N)Cc3nc4ccccc4n3C)cc2[nH]c1=O` (stereo not shown) [Compound 338], the IC50 was 2000 nM in the assay with PC-3 cells (Alamar Blue) and 1580 nM in the assay with HCT116 cells (Alamar Blue).

Take `CCc1cc2ccc(C(C)(C#N)Cc3cccc(/C=C/S(C)(=O)=O)c3)cc2[nH]c1=O` (stereo not shown) [Compound 292]: the IC50 with PC-3 cells (Alamar Blue) and in the assay with HCT116 cells (Alamar Blue) was 501 nM throughout.

As to `CCc1cc2ccc(C(C)(C#N)Cc3cccc(C#C[Si](C)(C)C)n3)cc2[nH]c1=O` (stereo not shown) [Compound 210], the IC50 in the assay with PC-3 cells (Alamar Blue) and in the assay with HCT116 cells (Alamar Blue) was 501 nM throughout.

For the compound `CCc1cc2ccc(C(C)(C#N)Cc3ccc(C)nc3)cc2[nH]c1=O` (stereo not shown) [Compound 327], the IC50 in the assay on PC-3 cells (Alamar Blue) is 7940 nM; with HCT116 cells (Alamar Blue) it was 2000 nM.

Consider `CCc1cc2ccc(C(F)(C#N)Cc3ccccc3)cc2[nH]c1=O` (stereo not shown) [Compound 187], for which the IC50 with PC-3 cells (Alamar Blue) is 7940 nM; in the assay on HCT116 cells (Alamar Blue) it was 3160 nM.

Consider `CC(=O)c1cc2ccc(C(C)(C#N)Cc3ccccc3)cc2[nH]c1=O` (stereo not shown) [Compound 39], for which the IC50 with PC-3 cells and with HCT116 cells was > 10000 nM each time.

Turning to `CCc1cc2ccc(C(C)(C#N)Cc3ccc(OC)nc3)cc2[nH]c1=O` (stereo not shown) [Compound 352], the IC50 in the assay with PC-3 cells (Alamar Blue) was 2510 nM; with HCT116 cells (Alamar Blue) it was 1260 nM.

With `CCOc1cc(OCC)nc(CC(C)(C#N)c2ccc3cc(CC)c(=O)[nH]c3c2)n1` (stereo not shown) [Compound 309], the figures for the IC50 with PC-3 cells (Alamar Blue) and with HCT116 cells (Alamar Blue) were 2000 nM and 1000 nM, respectively.

For the compound `CCc1cc2ccc(C(C)(C#N)Cc3cccc(OC)n3)cc2[nH]c1=O` (stereo not shown) [Compound 353], the IC50 was 251 nM in the assay with PC-3 cells (Alamar Blue) and 200 nM in the assay on HCT116 cells (Alamar Blue).

For the compound `CCc1cc2ccc(C(C)(C#N)Cc3ccc4ccccc4n3)cc2[nH]c1=O` (stereo not shown) [Compound 336], the IC50 in the assay with PC-3 cells (Alamar Blue) and in the assay with HCT116 cells (Alamar Blue) was 2510 nM throughout.

Take `CCc1cc2ccc(C(C)(C#N)Cc3cc(N(C)C)nc(Cl)n3)cc2[nH]c1=O` (stereo not shown) [Compound 364]: the IC50 was 794 nM with PC-3 cells (Alamar Blue) and 1260 nM with HCT116 cells (Alamar Blue).

`CCc1cc2ccc(C(C)(C#N)Cc3nc(Cl)cc(N(C)C)n3)cc2[nH]c1=O` (stereo not shown) [Compound 359]: the IC50 was 501 nM with PC-3 cells (Alamar Blue) and 200 nM in the assay with HCT116 cells (Alamar Blue).

`CCc1cc2ccc(C(C)(C#N)CC3CCc4ccccc4O3)cc2[nH]c1=O` (stereo not shown) [Compound 399]: the IC50 with PC-3 cells (Alamar Blue) and with HCT116 cells (Alamar Blue) was 631 nM in each case.

Turning to `COc1cc(OC)nc(CC(C)(C#N)c2ccc3cc(C)c(=O)[nH]c3c2)n1` (stereo not shown) [Compound 308], the IC50 in the assay with PC-3 cells (Alamar Blue) and in the assay with HCT116 cells (Alamar Blue) was 316 nM each time.

Turning to `Cc1cc2ccc(C(C)(C#N)Cc3cccc(C#N)c3)cc2[nH]c1=O` (stereo not shown) [Compound 34], the values for the IC50 with PC-3 cells and with HCT116 cells were 631 nM and 200 nM, respectively.

Consider `CCc1cc2ccc([C@@](C)(C#N)Cc3cccc(C#N)c3)cc2[nH]c1=O` (single isomer, unassigned) [Compound 268], for which the IC50 in the assay with PC-3 cells (Alamar Blue) and in the assay on HCT116 cells (Alamar Blue) was 10000 nM throughout.

For the compound `C=Cc1cccc(CC(C)(C#N)c2ccc3cc(CC)c(=O)[nH]c3c2)c1` (stereo not shown) [Compound 172], the IC50 with PC-3 cells (Alamar Blue) is 631 nM; in the assay on HCT116 cells (Alamar Blue), 501 nM.

In the case of `CCc1cc2ccc(C(C)(C#N)Cc3cccc(Br)n3)cc2[nH]c1=O` (stereo not shown) [Compound 344], the IC50 in the assay with PC-3 cells (Alamar Blue) is 631 nM; in the assay with HCT116 cells (Alamar Blue) it was 316 nM.

Take `C#Cc1cccc(C[C@](C)(C#N)c2ccc3cc(CC)c(=O)[nH]c3c2)c1` [Compound 2]: the IC50 in the assay on PC-3 cells (Alamar Blue) and in the assay with HCT116 cells (Alamar Blue) was 10000 nM each time.

With `CCc1cc2ccc(C(C)(C#N)Cc3cccc(OCCO)c3)cc2[nH]c1=O` (stereo not shown) [Compound 262], the IC50 in the assay on PC-3 cells (Alamar Blue) was 501 nM; in the assay with HCT116 cells (Alamar Blue) it was 251 nM.

For the compound `CCc1cc2ccc(C(C)(C#N)Cc3cccc(CCC#N)c3)cc2[nH]c1=O` (stereo not shown) [Compound 169], the IC50 in the assay on PC-3 cells (Alamar Blue) was 3160 nM; in the assay with HCT116 cells (Alamar Blue), 5010 nM.

Regarding `CCc1cc2ccc(C(C)(C#N)Cc3cccc(Cl)n3)cc2[nH]c1=O` (stereo not shown) [Compound 310], the values for the IC50 in the assay on PC-3 cells (Alamar Blue) and with HCT116 cells (Alamar Blue) were 631 nM and 501 nM, respectively.
